# Laboratory results from a melting point compilation (Tetko et al.; mined from patent text by program, amines drawn as free bases though some values may be those of a salt).
row,Compound,melting point [°C]
1,Cc1oc(-c2ccco2)nc1COc1ccc(CON=C(CCCCCCC(=O)O)c2ccccc2)cc1,75 to 77
2,CCC(=O)n1nc(-c2cc(C(C)(C)C)c(O)c(C(C)(C)C)c2)c2cccnc21,184 to 185
3,C=CC(=O)OCCNC(=O)C(C)ON(C(C(C)(C)C)P(=O)(OCC)OCC)C(C)(C)C (stereo not drawn),95 to 98
4,CC(C)(O)c1ccc(-c2cnc3[nH]c(=O)n(CC4CCOCC4)c3n2)cc1,212 to 214
5,COC1(c2cc(F)cc(S(=O)(=O)c3ccc4c(c3)OCCC4=NO)c2)CCOCC1,209 to 210
6,CCCNC(=NC(=Nc1ccccc1)N1CCOCC1)C(C)C,122 to 124
7,Cc1nn(-c2c(Cl)cc(C(F)(F)F)cc2Cl)c(Cl)c1C=O,201
8,O=C(c1cccc(C(F)(F)F)c1)c1ncccc1C(O)=NNc1ccc(C(F)(F)F)cc1,127 to 129
9,O=C(OCC1OC(n2cnc3c(NCC(c4ccccc4)c4ccccc4)ncnc32)C(OC(=O)c2ccccc2)C1OC(=O)c1ccccc1)c1ccccc1 (stereo not drawn),60 to 75
10,CCCCCCNC(=O)n1nc(Oc2c(Cl)cc(C(F)(F)F)cc2Cl)c(Cl)c1C,86 to 88
11,O=C(O)CCCOc1ccc([N+](=O)[O-])cc1,116 to 118
12,CC(=O)N1CCC(CC(=O)c2ccc(N(C)C)cc2)CC1,136
13,CNS(=O)(=O)c1nc2ccc(O)cc2s1,189 to 190
14,CCOC(=O)C(=NOC(CC)C(=O)O)c1csc(NC(c2ccccc2)(c2ccccc2)c2ccccc2)n1 (stereo not drawn),154
15,CC(=O)OCc1[nH]c2c(c1C)C(=O)C(N1CC1)=C(C)C2=O,210 to 212
16,Cc1cc(C)c(C(C)(C#N)c2nc(C)nc(Cl)c2C)c(C)c1 (stereo not drawn),181 to 183
17,CCCCCCCCCCCCCC(C)Oc1c(I)cc(I)cc1I (stereo not drawn),56 to 58
18,COc1cc2ncnc(N3CCC(CN4C=CC=NS4(=O)=O)CC3)c2cc1OC,173 to 174
19,Nc1nc(N)nc(C2CC3CC2CC3c2nc(N)nc(N)n2)n1 (stereo not drawn),317 to 324
20,Cc1ccccc1C(=O)Nc1ccc(C(=O)N2CCCC(NC(=O)Cn3ccnc3)c3ccccc32)cc1 (stereo not drawn),250 to 252
21,Cc1c(-c2ccc(F)cc2)n(Cc2ccc(OCCN3CCCCCC3)cc2)c2ccc(O)cc12,181 to 184
22,CCC(=NO)c1ccc(OCCOC)cc1,74 to 80
23,CCOC(=O)c1cc([N+](=O)[O-])cn1CCC(C)C,46 to 47
24,O=C(O)c1ccc(C(c2ccc(C(=O)O)cc2)(c2ccc(C(=O)O)cc2)C(F)(F)F)cc1,366 to 367
25,CN1CCN(c2cccc3c2C[C@H](NC(=O)CCCc2ccccc2)CC3)CC1,137 to 139
26,CCCCSCC(=O)c1cc2[nH]c(=O)[nH]c2cc1Cl,199 to 201
27,O=C(O)c1sccc1C(F)F,119 to 120
28,CN1CCN(C(=O)CCS)C(C(=O)O)C1 (stereo not drawn),75 to 79

row,Compound,melting point [°C]
1,CC(=O)SCC(CC(C)C)C(=O)Nc1cccc(C(=O)O)c1 (stereo not drawn),184 to 186
2,Nc1nc(OC2CCCC2)c2ncn([C@@H]3C[C@H](CO)[C@@H](O)C3)c2n1,181 to 182
3,CCOC(=O)CCn1nc(-c2cc(C(C)(C)C)c(O)c(C(C)(C)C)c2)c2cccnc21,105 to 106
4,Nc1c([N+](=O)[O-])nc(Cl)c2nncn12,220
5,CC(=O)N1Cc2c(-c3noc(C4CC4)n3)ncn2-c2cccc(F)c21,208 to 210
6,O=C(NCCc1ccccc1)c1ccc(N2CCOCC2)nc1,163 to 165
7,CC(C)(C)NC(=O)[C@@H]1CC(=O)CN1C(=O)[C@@H](O)[C@H](Cc1ccccc1)NC(=O)[C@H](CC(N)=O)NC(=O)OCc1ccccc1,116 to 120
8,CC(C)N1C(=O)c2ccccc2N(S(C)(=O)=O)S1(=O)=O,156 to 158
9,CC(C)(C)OC(=O)N1CC(O)CN1C(=O)OC(C)(C)C,100 to 102
10,COC(=O)COc1ccc(OC)cc1C(=O)OC,66 to 68.5
11,Cc1nn(C)c2c(Cl)ncnc12,92 to 95
12,Oc1ccc(CCN2CCC(=C3c4sccc4CCn4ccnc43)CC2)cc1,> 200
13,Cc1sc(N)c(C#N)c1Cl,158
14,COc1ccc(C(=O)NCC[C@@H](O)C(=O)O)cc1,104
15,CCOC(=O)c1c(CN2CCOCC2)nc2cc(OC)c(OC)cc2c1-c1ccc(OC)c(OC)c1,146 to 147
16,NC(=O)CNC(=O)c1cccc(-c2cccc3cc(Cc4cccc(C(F)(F)F)c4)sc23)c1,147 to 148
17,CCN(CC)C(=O)n1ccc(S(=O)(=O)c2cccc(Cl)c2Cl)n1,60 to 61.5
18,O=C(CNc1ccc(O)cc1)N1CCC(Cc2ccccc2)CC1,138 to 140
19,OCC1OC(Sc2ccccc2)C(OCc2ccccc2)C(OCc2ccccc2)C1OCc1ccccc1 (stereo not drawn),127 to 129
20,COC(=O)C1CSCC1=O (stereo not drawn),51
21,O=C(NCC#Cc1ccc(C#CCNC(=O)OCc2ccccc2)nc1)OCc1ccccc1,156 to 158
22,CCCCN1C(=O)[C@@H]2[C@H](C1=O)[C@H](c1ccc(C#N)cc1)N(C(C)=O)[C@H]2C (racemic),140 to 141
23,COc1c(Nc2ncc(Cl)c(Nc3ccccc3S(=O)(=O)N(C)C)n2)ccc2c1CCC(NCC(F)F)CC2 (stereo not drawn),118
24,CCNC(=O)Nc1ccc(C(O)(C(F)(F)F)C(F)(F)F)cc1Br,125 to 127
25,COC(=O)c1cc(S(C)(=O)=O)c(Cl)cc1C,151
26,CC(C)(C)c1cc(C(=O)c2cc3c(cc2O)CCC3)cc(C(C)(C)C)c1O,155 to 156
27,CN1CCN(c2ccc(-c3nc4c(N[C@H]5[C@@H](C(N)=O)[C@@H]6C=C[C@H]5C6)ccnc4[nH]3)cc2)CC1,220 to 222

# Next, values leading:
row,melting point [°C],Compound
1,198 to 200,O=C1CCC(N2Cc3c(OCc4ccc(CN5CCC(c6ccncc6)CC5)cc4)cccc3C2=O)C(=O)N1 (stereo not drawn)
2,180 to 182,Cc1cccc(C(=O)n2c3c(c4ccccc42)CC(C(=O)O)CC3)c1 (stereo not drawn)
3,190 to 193,COC(=O)NC1CCc2ccc(NC(=O)c3cccc(C)c3-c3ccc(C(F)(F)F)cc3)cc2CC1 (stereo not drawn)
4,240 to 242,COc1cc2c(cc1-c1ccccc1F)NC(=O)CC(c1ccnc(C#N)c1)=N2
5,87 to 89,OCCCc1cc(Cl)cc2nc(Cc3cccc(Cl)c3)oc12
6,125 to 126,Cc1ccccc1CCc1c(C(C)C)nc(C(C)C)c(CO)c1-c1ccc(F)cc1
7,> 260,CC(=O)Nc1nc(N)nc(-c2ccc(S(=O)(=O)c3ccccc3)cc2)n1
8,208 to 216,NS(=O)(=O)c1ccc(N2CN(c3cccc(Cl)c3)CC2=O)c(Cl)c1
9,188 to 190,O=C1C(Cc2ccccc2CF)c2ccccc2C12COc1cc3c(cc12)OCCO3 (stereo not drawn)
10,> 290,COC(=O)c1ccc(Cn2nc(O)c3[nH]c4cc(Cl)ccc4c(=O)c3c2=O)cc1
11,205 to 207,COc1cc(Nc2c(C#N)cnc3cc(-c4cccc(CN5CCOCC5)c4)sc23)c(Cl)cc1Cl
12,108 to 110,Cc1[nH]c2c(Cl)cc(Nc3cnccc3N)cc2c1C
13,220 to 224,COc1ccccc1C1(Cl)C(=O)Nc2ccc(Cl)cc21 (stereo not drawn)
14,174 to 175,COc1ccc(S(=O)(=O)Nc2ccccc2NC(=O)c2ccccn2)cc1
15,259 to 260,O=S(=O)(c1ccccc1)n1ccc2c(Cl)nc(-c3ccccc3)nc21
16,162 to 164,Nc1cc(-c2ccccc2)nc2ccccc12
17,124 to 126,CCCc1cc(C(O)=S)cc(N)c1C(=O)c1ccccc1
18,165 to 166,NS(=O)(=O)c1ccc(-n2nc(C(F)(F)F)cc2-c2ccc(F)cc2)cc1
19,81 to 84,CCOC(=O)CC12CC(c3ccccc31)c1ccccc12
20,133 to 134,COC(=O)[C@@H]1Cc2ccccc2N1c1ccc(Cl)nn1
21,261 to 266,COc1ccc2c3c(c(Cl)nc2c1)C(=O)c1ccccc1-3
22,166,CCCCOc1cc(C=C(C)C(=O)O)ccc1-c1cccc(CNCC(=O)c2ccccc2)c1

row,melting point [°C],Compound
1,168,O=c1oc2c(c(O)c1-c1ccccc1)CCCC2
2,132 to 134,CC(C)(C)C(=O)c1[nH]c2cc(Cl)ccc2c1N
3,189 to 190,Oc1cc(O)c2cc(-c3ccc(F)cc3)oc2c1
4,160 to 165,COc1ccc(Nc2nc(C)ncc2S(=O)(=O)c2ccc(OCc3ccccc3)cc2)c(C)n1
5,272 to 273,O=C(c1ccc(Cl)cc1)[C@H]1C[C@H]1C(=O)N1CCC(N2Cc3ccccc3NC2=O)CC1 (relative stereo)
6,264 to 266,Nc1cccc2c1CN(c1c(F)cc3c(=O)c(C(=O)O)cn(-c4ccc(F)cc4F)c3c1F)C2
7,169 to 171,Cc1csc(N2C(=O)C(Cc3ccccc3)NC2=S)n1 (stereo not drawn)
8,269 to 270,O=c1nc(-c2ccccn2)sc2ccc(Cl)cc12
9,176 to 177,O=C1CCCc2ccc(OCCCCN3CCN(c4cccc5c4OCC5)CC3)nc2N1
10,239 to 240,Nc1nc(N)nc(-c2ccc(-c3ccccc3)c3ccccc23)n1
11,142 to 143,Cn1c(=Nc2ccc(Cl)cc2)sc2ncccc2c1=O
12,172 to 178,Clc1cccc2c1C1(CO1)c1cccc(Cl)c1C21CO1 (stereo not drawn)
13,87 to 88,COc1cc(OC)c2ccccc2c1O
14,250,Cc1cc(-c2nc3c(s2)C(=O)c2ccccc2C3=O)oc1C
15,270 to 272,CN(C)c1ccc(-c2cc3ncc(C#N)c(Cl)c3s2)cc1
16,146,CN1Cc2ccc(Cl)c3scc(c23)S1(=O)=O
17,115 to 118,N#Cc1nc(Cl)c(Oc2ccccc2)nc1C#N
18,69 to 70,COc1ccc(S(=O)(=O)N(COCC[Si](C)(C)C)c2ccccc2I)cc1
19,200,Cc1cc(Oc2ccc(S(=O)(=O)c3ccc(Cl)cc3)cc2)ccc1N
20,165,Cn1cc(-c2ccccc2)c(=O)c(-c2ccccc2F)c1
21,192,CC1=C(C#N)C(c2cncc3ncc(-c4ccccc4)cc23)C(C(=O)OC(C)C)=C(C)N1 (stereo not drawn)
